Earlier results as cited in patent US6399089B1, “Compositions and methods for regulating metabolism and balancing body weight” (priority 2000, dated 2002).
Like-named read-outs stand apart in the source and are kept apart here.

Assays:
[1] = rats
[2] = 200 mcg, after 26 weeks, obese patients, very low calorie diet

## CC(=O)Oc1ccccc1C(=O)O [aspirin]
Lean women
  thermogenic response of ephedrine during a meal: not lean women
Obese women
  thermogenic response of ephedrine during a meal: potentiated

## CN[C@@H](C)[C@H](O)c1ccccc1 [ephedrine]
[1]
  increase in energy expenditure: 9%
  reduction of body fat: 50%
  reduction of body weight: 18%

## chromium picolinate
[2]
  lean body mass: increased lean body mass
